{
  "source": "patent US20150157672A1",
  "about": "“KITS AND METHODS FOR SUSTAINED WEIGHT LOSS” (PHYTOLOGY LABS, INC., priority 2013, published 2015)",
  "key": {"α1-receptor": {"system": "α1-receptor", "conditions": "functions as an antagonist; cited from earlier work"}, "[1]": {"assay": "Estimated effect of first, second and third treatment phase (Tables 1-3)", "format": "in vivo, human", "description": "In some embodiments the first treatment phase may comprise administering at least one weight loss agent. In some embodiments, the at least one weight loss agent is a protein kinase A modulator, a neurotransmitter modulator or a combination thereof. In some embodiments, the weight loss agents administered during this treatment phase are selected from Camellia sinensis, caffeine, Capsicum sp., 5-hydroxytryptophan, and any combination thereof. In yet other embodiments the first treatment phase comprises administering Camellia sinensis, caffeine, Capsicum sp., 5-hydroxytryptophan, or any combination thereof. […] In some embodiments, the second treatment phase comprises administering at least one weight loss agent. In some embodiments, the at least one weight loss agent is a macro nutrient absorption modulator, a neurotransmitter modulator or a combination thereof. In some embodiments, the at least one weight loss agent is selected from Phaseolus vulgaris, […] gabonensis, Rhodiola rosea, and any combination thereof. In yet other embodiments the second treatment phase comprises administering Phaseolus vulgaris, […] gabonensis, Rhodiola rosea, or any combination thereof. […] In some embodiments, the third treatment phase comprises administering at least one weight loss agent. In some embodiments, the at least one weight loss agent is a Protein Kinase A modulator, Adenosine Mono-Phosphate activated Kinase (AMPk) modulator, or a combination thereof. In some embodiments, the at least one weight loss agent is selected from Coffea canefora, Coleus forskholii, yohimbine, caffeine, and any combination thereof. In yet other embodiments, the third treatment phase comprises administering Coffea canefora, Coleus forskholii, yohimbine, caffeine, or any combination thereof."}, "[2]": {"assay": "Rough point estimate of effect size by weight loss agent from published studies (Table 7)", "format": "in vivo, human", "description": "A rough point estimate of the effect size by weight loss agent was developed using data from published studies.\nThe ΔWt. LossMAX for Garcinia sp. from 1.0 kg to 3.0 kg assumes the dose response curve model is valid, which has not been proven. The dosage of Phaseolus vulgaris is measured in α-amylase blocking units. Coffea canefora is administered as Syetol®, a commercial preparation most commonly used in the studies (400 mg). Crocus sativus dosages for depression are much lower 30 mg and have been shown for extracts of both stigma & leaf."}, "α2-adrenergic receptor": {"system": "α2-adrenergic receptor", "conditions": "functions as an antagonist; cited from earlier work"}, "[3]": {"assay": "Kinetic decay model of weight loss fitted to published clinical data (efficacy benchmarks)", "format": "in vivo, human", "conditions": "for ΔWt. LossMAX: model parameter; for Decay Coeff. (−b): model Weight (t)=Weight Plateau+ΔWt. LossMAX e^-bt, across studies and doses", "description": "In order to better understand the underlying dynamics of weight loss agents over time, several weight loss agents were selected to study and attempt to model. These included a wide range of weight loss agents including dietary supplements (C. sinensis & alginate), OTC drugs (orlistat), and Rx drugs (sibutramine, Qysmia®). Over time, more may be added to the database to test hypotheses and to improve the modeling of the underlying weight loss dynamics.\nAll agents followed the same basic kinetic model: Weight (t)=Weight Plateau+ΔWt. LossMAX e-^bt, where Weight Plateau=Starting Weight−ΔWt. LossMAX. Where t=time, b=decay coefficient, and ΔWt. LossMAX=maximum amount of weight lost, which appears to be a function of weight loss agent, dosage, and patient population. […] It does appear to vary by weight loss agent. The variation within a weight loss agent appears to be fairly low. It is critical to note that these are only the initial observations based upon estimating the results using published data. The raw data, more observations, and a more sophisticated statistical analysis are needed in order to make more definitive claims. The fact that all weight loss agents seem to follow the same relationship supports the adaptation hypothesis. […] All of the observed data fit the model well. The decay coefficient was estimated to be 0.1±0.02, and all the studies except Rossner fell within one standard deviation of this mean. The decay coefficient for the Rossner study was 0.05, which is slightly more than two standard deviations from the mean. However, it is important to put this in context. The maximum difference between the model using 0.05 as the decay coefficient and 0.10 is about 2.0 kg, which falls within the observation error range. It is unclear whether this difference was due to random chance, to variation caused by the inherent error arising from estimating the data from the published graphs, or to something more fundamental. […] LossMAX for diabetic vs non-diabetic patients on orlistat. […] However, given the number of studies analyzed, it is premature to draw any definitive conclusions beyond that these are interesting data points from which a hypothesis can be generated. All of the observed data for Qysmia fit the model well, see FIG. 8. The decay coefficient was estimated to be 0.08±0.01. The decay coefficient was very consistent across all the studies and doses. Given these were registration studies, the larger sample sizes may have allowed for better resolution. The observed data for sibutramine also fit the model well. Since there were more studies, it was impractical to show them all in a graph. The decay coefficient was estimated to be 0.14±0.04. Sibutramine offered the widest number of conditions studied, and as expected, there was more variability in the decay coefficient."}, "[4]": {"conditions": "cited from earlier work; for thermogenic response: in man"}, "[5]": {"conditions": "FIG. 2; cited from earlier work"}, "[6]": {"assay": "Systematic review and meta-analysis of randomized clinical trials of Garcinia extract (HCA) with dose-response curve", "format": "in vivo, human", "conditions": "curve ΔWt=ΔWtmax(1−e^−b*dosage)", "description": "A systematic review and meta-analysis to examine the efficacy of Garcinia extract, hydroxycitric acid (HCA) as a weight reduction agent, using data from randomized clinical trials, found a small, statistically significant difference in weight loss of -0.9 kg between HCA and placebo. A nonlinear, significant (P<0.05) correlation between the dosage of HCA and body weight loss seems to exist. This relationship follows a curve ΔWt=Δ[…]) which is consistent with a first order ligand binding kinetics. […] However, HCA quickly approaches its asymptotic maximum by 2800 mg/day."}, "[7]": {"conditions": "when ingested; cited from earlier work"}},
  "note": "Read-outs that look alike come from different tables or passages of the source.",
  "data": [
    {"smiles": "COC(=O)[C@@H]1[C@H]2C[C@H]3c4[nH]c5ccccc5c4CCN3C[C@@H]2CC[C@@H]1O", "note": "[yohimbine]", "values": [
      {"measurement": "affinity for the α1-receptor", "setting": "α1-receptor", "result": "moderate affinity"},
      {"measurement": "Estimated kg/wk reduction", "setting": "[1]; third treatment phase", "result": 0.1, "unit": "kg/wk"},
      {"measurement": "Estimated ΔWt. LossMAX", "setting": "[1]; third treatment phase", "result": 1.5, "unit": "kg"},
      {"measurement": "Kg./wk", "setting": "[2]; Dosage 20 mg/day", "result": "0-0.16 Kg./wk"},
      {"measurement": "ΔWt. LossMAX", "setting": "[2]; Dosage 20 mg/day", "result": "0 to 1.5", "unit": "kg"},
      {"measurement": "affinity for the α2-adrenergic receptor", "setting": "α2-adrenergic receptor", "result": "high affinity"}
    ]},
    {"smiles": "CC(C)CC(N(C)C)C1(c2ccc(Cl)cc2)CCC1", "note": "(centres unmarked) [Sibutramine, sibutramine]", "values": [
      {"measurement": "ΔWt. LossMAX", "setting": "[3]; Dosage 1 mg", "result": 3.7, "unit": "kg"},
      {"measurement": "ΔWt. LossMAX", "setting": "[3]; Dosage 5 mg", "result": 4.5, "unit": "kg"},
      {"measurement": "ΔWt. LossMAX", "setting": "[3]; Dosage 10 mg", "result": 8.4, "unit": "kg"},
      {"measurement": "ΔWt. LossMAX", "setting": "[3]; Dosage 15 mg", "result": 7.3, "unit": "kg"},
      {"measurement": "ΔWt. LossMAX", "setting": "[3]; Dosage 20 mg", "result": 8.5, "unit": "kg"},
      {"measurement": "ΔWt. LossMAX", "setting": "[3]; Dosage 30 mg", "result": 9.1, "unit": "kg"},
      {"measurement": "Decay Coeff. (−b)", "setting": "[3]", "result": "0.14 ± 0.04"},
      {"measurement": "Decay Coeff. (−b)", "setting": "[3]; listed as sibutramine", "result": "0.14±0.04"}
    ]},
    {"smiles": "Cn1c(=O)c2c(ncn2C)n(C)c1=O", "note": "[caffeine]", "values": [
      {"measurement": "Estimated kcal/day reduction", "setting": "[1]; first treatment phase", "result": 60, "unit": "kcal/day"},
      {"measurement": "Estimated ΔWt. LossMAX", "setting": "[1]; first treatment phase", "result": 0.5, "unit": "kg"},
      {"measurement": "Estimated kg/wk reduction", "setting": "[1]; third treatment phase", "result": 0.05, "unit": "kg/wk"},
      {"measurement": "Estimated ΔWt. LossMAX", "setting": "[1]; third treatment phase", "result": 0.5, "unit": "kg"},
      {"measurement": "Kcal/d", "setting": "[2]; Dosage 500-700 mg/day", "result": "50 to 75", "unit": "kcal/day"},
      {"measurement": "raise of energy expenditure", "setting": "[4]; 600 mg/day dose", "result": 63, "unit": "kcal/day"},
      {"measurement": "thermogenic response", "setting": "[4]; dose 100 mg", "result": "4-5%"},
      {"measurement": "thermogenic response", "setting": "[4]; dose 200-250 mg", "result": "10-12%"},
      {"measurement": "thermogenic response", "setting": "[4]; dose 400-450 mg", "result": 16, "unit": "%"},
      {"measurement": "minimum (or near minimum) dose with demonstrable stimulatory effect on resting metabolic rate (RMR)", "setting": "[4]; in vivo", "result": 100, "unit": "mg"}
    ]},
    {"smiles": "CCCCCCCCCCC[C@@H](C[C@@H]1OC(=O)[C@H]1CCCCCC)OC(=O)[C@H](CC(C)C)NC=O", "note": "[Orlistat, orlistat]", "values": [
      {"measurement": "ΔWt. LossMAX", "setting": "[3]; Dosage 120 mg (diabetics)", "result": 4.3, "unit": "kg"},
      {"measurement": "ΔWt. LossMAX", "setting": "[3]; Dosage 120 mg", "result": 7.1, "unit": "kg"},
      {"measurement": "decay coefficient", "setting": "[3]; Rossner study", "result": 0.05},
      {"measurement": "Decay Coeff. (−b)", "setting": "[3]", "result": "0.11 ± 0.02"},
      {"measurement": "Decay Coeff. (−b)", "setting": "[3]; listed as orlistat", "result": "0.1±0.02"}
    ]},
    {"smiles": "CC(C)(N)Cc1ccccc1", "note": "[Phentermine]", "values": [
      {"measurement": "time to reduction or complete cessation of weight loss", "setting": "[5]", "result": "about 4 weeks"}
    ]},
    {"smiles": "O=C(O)CC(O)(C(=O)O)C(O)C(=O)O", "note": "(centres unmarked) [HCA, hydroxycitric acid]", "values": [
      {"measurement": "ΔWtmax", "setting": "[6]", "result": "about 3.5 kg"}
    ]},
    {"smiles": "N[C@@H](Cc1c[nH]c2ccc(O)cc12)C(=O)O", "note": "[5-hydroxytryptophan]", "values": [
      {"measurement": "Estimated kcal/day reduction", "setting": "[1]; first treatment phase", "result": 240, "unit": "kcal/day"},
      {"measurement": "Estimated ΔWt. LossMAX", "setting": "[1]; first treatment phase", "result": "1.5 to 2.5", "unit": "kg"},
      {"measurement": "Kcal/d", "setting": "[2]; Dosage 50-900 mg oral", "result": 400, "unit": "kcal/day"},
      {"measurement": "Kg./wk", "setting": "[2]; Dosage 50-900 mg oral", "result": 0.2, "unit": "Kg./wk"},
      {"measurement": "ΔWt. LossMAX", "setting": "[2]; Dosage 50-900 mg oral", "result": "1.5 to 2.5", "unit": "kg"},
      {"measurement": "reduction in energy intake", "setting": "[4]; spontaneous reduction of calorie consumption", "result": "about 243 Kcal/day"},
      {"measurement": "adverse effects", "setting": "[7]", "result": "nausea and diarrhea"}
    ]}
  ]
}
